Experimental findings from publication PMC5048545 (Journal of molecular biology, 2016) are described below.

Test [1] concerns the target T1, carboxysome-associated PII protein (CPII) (Thiomonas intermedia, UniProt D5X329).
The target in test [2] is T1, carboxysome-associated PII protein (CPII). Description: crystal structures. The class given is binding.

Structures are written as SMILES.

With `O=C(O)O` [bicarbonate], the “crystal structure; EPR titration” value in test [1] is “Bicarbonate molecules bind in nooks formed by Gly-101 and Arg-102, which immediately precede the C-loop α-helix”.

In general, Kd refers to the constant that tells how readily two partners part at equilibrium. As for `Nc1ncnc2c1ncn2[C@@H]1O[C@H](COP(=O)(O)O)[C@@H](O)[C@H]1O` [AMP], the Kd in test [2] came out at 1800 µM.
